Laboratory results: patent publication US20160228434A1, “TREATMENT OF DISEASES CAUSED BY ABNORMAL LYMPHOCYTE FUNCTION WITH AN HDAC6 INHIBITOR” (priority 2013, published 2016)
Entries after “also recorded” stand apart in the source; their conditions may differ.

Experiments:
Type in all cases: in vivo
NZB/W mice = experiment: Survival rate and disease progression (body weight, proteinuria, spleen weight) in NZB/W mice; conditions: for proteinuria: every 2 weeks
Description: (§1) NZB/W mice were injected intraperitoneally 5 days/week with the vehicle control (DMSO), ACY-738 treatment at 5 mg/kg (low-dose), or ACY-738 treatment at 20 mg/kg (high-dose) beginning at 22-weeks-of-age until euthanization at 38 weeks-of-age. ACY-738 was received from Acetylon Pharmaceuticals for use in all studies. Proteinuria and weight were measured every 2 weeks and blood was collected every four weeks for sera analysis. Proteinuria was measured by a standard semi-quantitative test using Siemens Uristix dipsticks (Siemens Healthcare, Deerfield, Ill., USA). Results were quantified according to the manufacturer's instructions and scored as follows: dipstick reading of 0 mg/dL=0, trace=1, 30-100 mg/dL=2, 100-300 mg/dL=3, 300-2000 mg/dL=4, and 2000+ mg/dL=5.
However, half of the NZB/W mice receiving the vehicle control alone died before termination of the study at 38 weeks-of-age (FIG. 6 A). Body weight increased as NZB/W mice aged following treatment with ACY-738. Vehicle control-treated NZB/W mice experienced weight loss concomitantly with increased proteinuria (FIG. 6 B).
Throughout the treatment period, NZB/W mice were monitored for changes in proteinuria and body weight.
Because SLE is characterized by enlargement of the spleen, splenomegaly was assessed in mice following euthanization by determining the total spleen weight along with the spleen: body weight ratio. Both spleen weight and spleen: body weight ratio were decreased following HDAC6 inhibition in a concentration dependent manner (FIG. 6 D-E).

[1] = tested on: sera anti-dsDNA, IgG, IgG2a, IgG2b, IgM; experiment: Sera anti-dsDNA and Ig isotype levels by ELISA in treated NZB/W mice
Description: as §1
Sera were collected prior to initiation of treatment at 22 weeks-of-age and every 4 weeks until euthanization. The mice were anesthetized using isoflurane (Piramal Healthcare, Mumbai, Maharashtra, India) and bled from the retro-orbital sinus. Blood was allowed to clot for 2 hours and then centrifuged for 15 min at 10,000×g. The levels of sera antibodies to dsDNA were measured by ELISA. Sera samples were added to the plate at a 1:100 dilution, followed by a two-fold serial dilution. The plate was read at 380 nm on a Spectramax 340PC microplate spectrophotometer (Molecular Devices, Sunnyvale, Calif., USA). A final dilution of 1:800 was reported.

[2] = tested on: glomerular IL-6, IL-10 and TGF-β mRNA; experiment: Glomerular IL-6, IL-10 and TGF-β mRNA by real-time RT-PCR in treated NZB/W mice; conditions: 38-week-old NZB/W mice
Description: as §1
RNA was isolated using the mirVana miRNA isolation kit according to the manufacturer's protocol (Applied Biosystems, Carlsbad, Calif., USA). The eluates were quantified on a spectrophotometer (Nanodrop, Thermo Scientific, Waltham, Mass., USA). An aliquot was taken and diluted to 1 ng/μL for real-time RT-PCR. The eluted RNA was stored at −80° C.
IL-6, IL-10 and TGF-β mRNA expression were measured using TaqMan Gene Expression assays (Applied Biosystems, Carlsbad, Calif., USA). The […] using the endogenous control GAPDH, and then the ΔCT was determined by calculating the fold change in expression between the NZB/W mice treated with ACY-738 and the DMSO-treated controls. All samples were run in triplicate.
The cortical tissue was isolated from one kidney of each mouse and pooled by treatment group. Briefly, cortical tissue was pressed through grading sieves and resuspended in 750 U/mL Worthington type I collagenase at 37° C. for 20 min. Glomerular cells were pelleted, resuspended in RNAlater (QIAGEN, Valencia, Calif., USA), and stored at −20° C. until RNA isolation.
Following euthanization, glomeruli were isolated from the kidneys and RNA was extracted. Relative glomerular mRNA expression of IL-10, TGF-β, and IL-6 were determined using real-time RT-PCR.

[3] = tested on: Treg cells (CD4+Foxp3+CD25+); experiment: Splenic Treg phenotype by flow cytometry in treated NZB/W mice; conditions: 38-week-old NZB/W mice, both doses (5 and 20 mg/kg), vs vehicle control
Description: as §1
A single-cell suspension was obtained from the thymuses and spleens of treated NZB/W mice at 38 weeks-of-age. Briefly, the thymus was removed from each NZB/W mouse and dissociated across a sterile wire mesh in a petri dish containing ice-cold RPMI 1640 medium (Thermo Scientific). RBCs were lysed using RBC lysis buffer and cells were pelleted and washed with PBS. Splenocytes were stained with APC-conjugated CD3, FITC-conjugated CD4, eFluor450 (eF450)-conjugated CD8a, PerCP-CY5.5-conjugated CD25, and PE-conjugated Foxp3. […] Fluorescence was measured using a FACScan flow cytometer and data was analyzed by FlowJo software. […]

splenic B cells = experiment: Splenic B cell developmental stages by flow cytometry in treated NZB/W mice; conditions: either low (5 mg/kg) or high (20 mg/kg) dose
Description: as §1
Following euthanization, spleens were removed and single-cell suspensions of splenocytes were incubated with PerCP710 conjugated IgM, FITC conjugated AA4.1, PE conjugated CD23, and APC conjugated CD21 anti-mouse mAbs (eBioscience, San Diego, Calif., USA). IgM^+ cells were analyzed for the expression of AA4.1, CD23 and CD21 and divided into the following developmental stages using flow cytometry: T1 (IgM^+ CD23^− AA4.1^+ CD21^−), T2 (IgM^hi CD23^+ AA4.1^+ CD21^+), T3 (IgM^lo CD23^+ AA4.1^+ CD21^+), F0 (IgM^+ CD23^+ AA4.1^− CD21^−), MZ (IgM^+ CD23^− AA4.1^− CD21^+) or B1 (IgM^+ CD23^− AA4.1^− CD21^−). […]

[4] = NZB/W mice after euthanization at 38 weeks, 5 and 20 mg/kg, concentration dependent
[5] = NZB/W mice, 5 and 20 mg/kg, dose-dependent
[6] = 5 mg/kg, vs DMSO-treated controls

For `O=C(NO)c1cnc(NC2(c3ccccc3)CC2)nc1` [ACY-738], the spleen weight (NZB/W mice; [4]) was “decreased”, the “spleen: body weight ratio” value (NZB/W mice; [4]) was “decreased” and the body weight (NZB/W mice; NZB/W mice, 22-38 weeks-of-age, vehicle mice lost weight) was “increased”. For the same compound, the survival (NZB/W mice; NZB/W mice, high (20 mg/kg) or low (5 mg/kg) dose, to 38 weeks-of-age, half of vehicle mice died) was “survived to the completion of the study”, the proteinuria (NZB/W mice; NZB/W mice, high dose 20 mg/kg, 22-38 weeks-of-age, 20 mg/kg) was “prevented proteinuria from increasing; also recorded: significantly attenuated” and the proteinuria (NZB/W mice; NZB/W mice, low dose 5 mg/kg, 22-38 weeks-of-age) was “gradually increased”. For the same compound, the “sera IgG2b level” value ([1]; NZB/W mice at 38 weeks-of-age) was “significantly increased”, the “sera total IgM level” value ([1]; NZB/W mice at 38 weeks-of-age) was “slightly increased; also recorded: no effect” and the “sera anti-dsDNA” value ([1]; NZB/W mice, 5 mg/kg, vs vehicle control, p<0.05) was “significant decrease”. The “sera anti-dsDNA” value ([1]; NZB/W mice, 20 mg/kg (high dose), 38 weeks-of-age, 16 weeks of treatment, 20 mg/kg) was “prevent an increase in anti-dsDNA; also recorded: more pronounced”, the “sera IgG2a level” value [1, 5] was “significantly decreased” and the “sera total IgG level” value [1, 5] was “significantly decreased”. The “reduction of glomerular IL-6 mRNA level” value [2, 6] was “more than 50%”, the “reduction of glomerular IL-10 mRNA level” value [2, 6] was “more than 50%” and the “glomerular IL-6 mRNA level” value ([2]; 20 mg/kg) was “non-detectable levels”. For the same compound, the “glomerular IL-10 mRNA level” value ([2]; 20 mg/kg) was “non-detectable levels”, the “glomerular TGF-β mRNA” value ([2]; 5 and 20 mg/kg, dose-dependent) was “decreased” and the “percentage of splenic Treg cells (CD4+Foxp3+CD25+)” value [3] was “significantly increased”. The “splenic B cell populations (T1, T2, T3, F0, MZ, B1)” value (splenic B cells) was “did not significantly affect; also recorded: no effect”.
